Laboratory results as given in patent US9675591B2, “Methods for treating seizure disorders and pain” (THE REGENTS OF THE UNIVERSITY OF CALIFORNIA, priority 2013, dated 2017).
“Also recorded” adds a separate entry of the source. Like-named read-outs stand apart in the source and are kept apart here.

Experiments:
[1] = Pharmacokinetics in Sprague-Dawley rats; format: in vivo
[2] = system: cultured hippocampal neurons; assay: Synchronous intracellular Ca2+ oscillations (FLIPR); format: cell-based, mouse; conditions: for effect on picrotoxin (PTX) induced Ca2+ oscillations: added 10 min before PTX
Procedure: Animals were treated humanely and with regard for alleviation of suffering according to protocols approved by the Institutional Animal Care and Use Committee of the University of California, Davis. Hippocampal neuron cultures were dissociated from hippocampi dissected from C57Bl/6J mouse pups at postnatal day 0-1 and maintained in Neurobasal complete medium (Neurobasal medium supplemented with NS21, 0.5 mM L-glutamine, HEPES) with 5% fetal bovine serum. For Ca^2+ imaging studies using FLIPR, dissociated hippocampal cells were plated onto poly-L-lysine coated clear-bottom, black wall, 96-well imaging plate (BD, Franklin Lakes, N.J., USA) at a density of 0.8×10^5/well. The medium was changed twice a week by replacing half the volume of culture medium in the well with serum-free Neurobasal complete medium. The neurons were maintained at 37° C. with 5% CO2 and 95% humidity.
Hippocampal neurons 14-17 DIV were used for simultaneous measurements of intracellular Ca^2+ transients in all wells of a 96-well plate as described previously (Cao et al., 2012). After aspiration, the cells were incubated with 4 μM Fluo-4 in Locke's buffer containing 0.5 mg/ml bovine serum albumin for 1 h at 37° C. The plates were then transferred to the FLIPR (Molecular Devices, Sunnyvale, Calif., USA) cell plate stage. After 4 min of baseline recordings, Ca^2+ signals were then recorded for 10 min in the presence or absence of SKA-19 followed by addition of the Ca^2+ enhancing agents 4-AP or PTX, and the intracellular Ca^2+ concentration ([Ca^2+]i) was monitored for an additional 30 min. Ca^2+-enhancing agents triggered an immediate rise in [Ca^2+]i that was quantified by determining the area under the curve of the Fluo-4 arbitraiy fluorescence units for a duration of 5 min following agent addition.
Hippocampal neurons between 13-17 days in vitro (DIV) were used to investigate how Ca^2+ enhancing agent alters synchronous Ca^2+ oscillations that normally occur in healthy neurons at this developmental stage. This method permits simultaneous measurements of intracellular Ca^2+ transients in all wells of a 96-well plate as described previously (Cao et al., 2012). Baseline recordings were acquired in Locke's buffer (8.6 mM HEPES, 5.6 mM KCl, 154 mM NaCl, 5.6 mM glucose, 1.0 mM MgCl2, 2.3 mM CaCl2, and 0.0001 mM glycine, pH 7.4) for 10 min in presence or absence of SKA-19 followed by addition of the Ca^2+ enhancing agents 4-aminopyridine (4-AP) or picrotoxin using a programmable 96-channel pipetting robotic system, and the intracellular Ca^2+ concentration ([Ca^2+]i) was monitored for an additional 30 min. Unless otherwise indicated, pharmacological interventions were introduced 10 min prior to Ca^2+ enhancing agent. Ca enhancing agent triggered an immediate rise in [Ca^2+]i that was quantified by determining the area under the curve (AUC) of the Fluo-4 arbitrary fluorescence units for a duration of 5 min following Ca^2+ enhancing agent addition. Ca^2+ enhancing agent also altered the frequency and amplitude of neuronal synchronous Ca^2+ oscillations, which were analyzed during the 10 min period after addition of Ca^2+ enhancing agent […].

CA1 pyramidal neurons = assay: Hippocampal slice recordings; format: cell-based, mouse; conditions: for effect on AP firing: 1-s 150-pA current injection
Procedure: Brain slice preparation was approved by the University of California, Irvine, Institutional Animal Care and Use Committee. Male C57BL/6 J mice (postnatal day 23) were anesthetized with halothane, decapitated, and brains transferred to an ice-cold, sucrose artificial cerebral spinal fluid (ACSF; Sigma-Aldrich). Hippocampal slices (300 μm) were prepared using a Leica VT1200S vibrating blade microtome (Leica Microsystems Inc., Buffalo Grove, Ill.). Slices were incubated at 33° C. in oxygenated (95% O2, 5% CO2) standard ACSF containing the following (mM) for at least 1 h before recordings: 126 NaCl, 2.5 KCl, 1.25 NaHPO4, 1.2 MgSO4, 10 glucose, 1.2 CaCl2, and 26 NaHCO3. Slices were submerged and continuously perfused at 2 ml/min with oxygenated ACSF at 33° C. during the current-clamp experiments. Voltage-clamp experiments were performed in the same ACSF but with 1 mM tetraethylammonium chloride (Sigma-Aldrich) and 0.5 μM tetrodotoxin (Sigma-Aldrich) added. Pyramidal CA1 neurons were visualized and identified with an upright microscope (Zeiss Axioskop Plus; Zeiss Jena, Germany) with infrared differential interference contrast optics. Recording pipettes (2-5 MΩ) were filled with intracellular solution containing (in mM): 126 K-gluconate; 4 KCl; 10 HEPES; 2 Mg-adenosine triphosphate; 0.3 Tris-guanosine triphosphate; 10 phosphocreatine, pH 7.20, 270-290 mOsm. In the current-clamp mode, depolarizing current pulses were applied from a membrane potential of −65 mV to evoke tonic firing activity. In the voltage-clamp mode, neurons were held at −55 mV and KCa currents elicited by 50-ms voltage steps to 10 mV, applied every 10 s. SKA-19 or NS309 were perfused for 10 min into the bath to allow for equilibrium. Recordings were performed in the whole-cell mode using a MultiClamp 700B amplifier (Molecular Devices), […] and sampled at 20 kHz with a Digidata 1322A digitizer (Molecular Devices). Data were acquired and analyzed with pClamp 10.2 software (Molecular Devices).

KCa2.1 = KCa2.1 (Homo sapiens (Human), UniProt Q92952); assay: Whole-cell patch-clamp, KCa2.1; format: cell-based
Procedure: HEK-293 or COS-7 cells stably expressing hKCa2.1, rKCa2.2, and hKCa2.3 have been described previously (Sankaranarayanan et al., 2009). Cells were held at −80 mV and KCa currents elicited by dialysis with a K^+ aspartate based internal containing 250 nM free Ca^2+ (pH 7.2, 290 mOsm, pipette resistance 1.5 MΩ). To reduce currents from native chloride channels, Na^+ aspartate Ringer was used as an external solution. KCa2 currents were recorded with 200-ms voltage ramps from −120 to +40 mV applied every 10 s, and the fold increase of slope conductance at −80 mV by drug was taken as a measure of channel activation. Data analysis, fitting, and plotting were performed with IGOR-Pro (Wavemetrics, Lake Oswego, Oreg., USA) and Origin 9.0 (OriginLab, Northampton, Mass., USA).

Nc1nc2ccc(SC(F)(F)F)cc2s1 [SKA-19, 6-((trifluoromethyl)thio)benzo[d]thiazol-2-amine]
oral availability ([1]; 10 mg/kg, both vehicles (solution and methylcellulose suspension)): roughly 30%
penetration into tissues (brain, heart, spleen, liver) ([1]; 2 h after i.p. 10 mg/kg): very effective at penetrating into tissues
peak plasma concentration ([1]; gavage 10 mg/kg, suspension in methylcellulose): 1.6 ± 0.6 µM
Kp at 2 h ([1]; male, Sprague-Dawley, rat, brain, ip, 10 mg/kg i.p., 2 h, read-out: brain to plasma concentration ratio): ~3
concentration at 2 h ([1]; male, Sprague-Dawley, rat, plasma, intraperitoneal, 10 mg/kg i.p., 2 h, read-out: plasma concentration): 4.6 ± 1.3 µM
concentration at 2 h ([1]; male, Sprague-Dawley, rat, plasma, intraperitoneal, 30 mg/kg i.p., 2 hours, read-out: total plasma concentration): 12 ± 2.21 µM
concentration at 4 h ([1]; male, Sprague-Dawley, rat, plasma, intraperitoneal, 30 mg/kg i.p., 4 hours, read-out: total plasma concentration): 13.1 ± 2.67 µM
half-life ([1]; male, Sprague-Dawley, rat, plasma, iv, 10 mg/kg, rats, i.v. 10 mg/kg in cremophor EL/PBS, read-out: elimination half-life t1/2 (converted)): 2.2 h
concentration at 8 h ([1]; male, Sprague-Dawley, rat, plasma, oral solution 10 mg/kg, at 8 h): 0.4 µM
oral availability ([1]; methylcellulose suspension as used by the ASP): about 50%
plasma concentration ([1]; oral solution 10 mg/kg, for 5 h): around 1 μM
sedation ([1]; rats, 30 mg/kg i.p., recovered without weight loss at 24 h): prolonged sedation
elimination half-life t1/2 ([1]; rats, i.v. 10 mg/kg in cremophor EL/PBS): 2.16 ± 0.023 h
effect on spontaneous Ca2+ oscillations ([2]; SKA-19 1 μM or less): did not significantly inhibit; also recorded: no effect
effect on spontaneous Ca2+ oscillations ([2]; SKA-19 3 μM or more): completely eliminated
effect on 4-AP induced initial Ca2+ rise and oscillations ([2]; added 10 min before 4-AP): potently suppressed; also recorded: inhibited
effect on picrotoxin (PTX) induced Ca2+ oscillations [2]: potently suppressed
effect on picrotoxin (PTX) induced Ca2+ oscillations ([2]; listed as SKA-10): inhibited
effect on AP firing (CA1 pyramidal neurons; 1 μM): slowed down AP firing
reduction of the number of spikes (CA1 pyramidal neurons; 10 μM, all injected current levels): roughly 50%
after-hyperpolarization amplitude of individual APs (CA1 pyramidal neurons; 10 μM, current-clamp): increase in after-hyperpolarization amplitude
effect on AP firing (CA1 pyramidal neurons; 25 μM): completely suppressed
mAHP current amplitude (CA1 pyramidal neurons; voltage-clamp, 10 μM): modest but significant increase; also recorded: increases the amplitude
EC50 (KCa2.1; 250 nM free intracellular Ca2+, read-out: EC50 or IC50, KCa2.1): > 100 µM
effect on KCa2.1 currents (KCa2.1; 100 and 200 μM): very weak effects
